Test [1] has as its system MS patients. The following applies: cited from earlier work.
Test [2] concerns experimental allergic encephalomyelitis (EAE). The following applies: cited from earlier work.
Test [3] has as its system MS patients. To be noted: cited from earlier work. This is another data set of the same source.
Test [4] concerns inflammatory reactions of MS in the animal model. The following applies: cited from earlier work.
The test system of test [5] is patients having clinically active MS. As to the kind of experiment: treatment trial of MS patients with zileuton (Zyflo Filmtab), three years, with brain nuclear magnetic resonance using Magnevist. The format is in vivo, humans. As for the experimental part: 15 patients having clinically active MS were treated with zileuton in a treatment trial. 15 MS patients without this treatment served as a control. One tablet of Zyflo™Filmtab® was administered to each four times a day.

[6] abbreviates: 15 MS patients, one Zyflo Filmtab tablet four times a day, three years, compared with 15 MS patients without this treatment.

Like-named read-outs stand apart in the source and are kept apart here.

This is an account of results in US20050020665A1, “Pharmaceutical composition for treating multiple sclerosis” (priority 2001, published 2005).

As for `Cn1cnc([N+](=O)[O-])c1Sc1ncnc2[nH]cnc12` [azothioprin], in the test on MS patients [1], the “effect in the treatment of MS patients” value was “not convincing”. The “effect in the EAE animal test” value in test [2] is recorded as “showed promising indications”.

As for `O=C(O)c1cc(/N=N/c2ccc(S(=O)(=O)Nc3ccccn3)cc2)ccc1O` [azulfidine], the “effect of treatment in MS patients” value in the test with MS patients [3] (first 18 months of treatment, double blind study) is given as “exceptionally beneficial effect could be proven”; in the test with MS patients [3] (three years after the end of the study) it was “this effect could no longer be proven”. Further, in test [4], the “effect in the animal model (suppression of inflammatory reactions of MS)” value is reported as “successful in the animal model”.

Turning to `CC(c1cc2ccccc2s1)N(O)C(N)=O` (centres unmarked) [zileuton, 1-(1-benzo[b]thien-2-ylethyl)-1-hydroxy urea], in test [5] (setting [6]), the chronic progression result is on record as “significantly decreased” and the frequency of attacks result is on record as “significantly decreased”. Further, in test [5] (every six months, contrast agent Magnevist), the “new or acute centres of inflammation absorbing the contrast agent (brain nuclear magnetic resonance)” value is given as “No new or acute centres absorbing the contrast agent could be determined”.
